According to US20250129067A1 (Progentos Therapeutics, Inc., priority 2021, published 2025):

How the values were obtained:
PDGFRα = PDGFRα (Homo sapiens (Human), UniProt P16234); experiment: PDGFRα kinase enzyme assay (Promega PDGFRα Kinase Enzyme System, ADP-Glo); format: biochemical; details: 11-point dose response, 10,000 nM to 0.169 nM; 150 uM ATP; BLQ = below limit of quantitation; read-out: IC50 Values on PDGFRα Kinase Inhibition, IC50
Protocol: The PDGFRα enzyme assays were conducted per the manufacturer's directions (Promega PDGFRα Kinase Enzyme System and ADP Glo Assay Cat #V8011). […] 20 ng of purified PDGFRα protein was added to the test article. […] ADP-Glo was added to halt the kinase reaction and deplete the remaining ATP. Kinase detection reagent, containing luciferase and luciferin, was used to convert the ADP signal into luminescence. Luminescence was measured using a Molecular Devices Spectramax ID5 and compared to a standard curve to determine kinase activity. IC50s were calculated using Prism 9, Graphpad software.

[1] = test system: Oligodendrocyte progenitor cells (OPCs); experiment: In vitro OPC differentiation assay, GPR17 expression (immunocytochemistry); details: 3 μM (10× concentration, final 0.3 μM); 72 hours; fold change over vehicle
Protocol: To assess the effects of the PDGFRα inhibitors on OPC differentiation, primary OPCs were cultured and exposed to compounds. The number of newly generated oligodendrocytes was assessed by monitoring GPR17 expression. GPR17 is preferentially expressed in actively differentiating oligodendrocytes, allowing them to be distinguished from precursors and more differentiated oligodendrocytes.
Cortices from postnatal day (P) 1-3 rats were dissected and collected into ice cold Hank's Balanced Salt Solution (HBSS). […] Briefly, the cortical cell suspension was centrifuged and washed with buffer (0.5% BSA in PBS) and labeled with Anti-A2B^5 MicroBeads (10 μL beads per 1×10^7 cells) for 15 minutes at 4° C. Following the incubation, cells were washed once with BSA buffer to remove unlabeled beads. A2B^5 positive cells were eluted on the column using the AutoMACS® (Miltenyi, as per manufacturer's protocol using “Possel-s” program). Eluted cells were further washed twice with OPC growth media. Cell counts were performed using Countess III cell counter (ThermoFisher; AMQAX2000) and cells were plated.
The plates were allowed to sit at room temperature for 15 minutes to ensure proper dispersion of cells in a well. The plates were then transferred to the incubator (37° C.; 5% CO2).
Cells were then incubated for 72 hours at 37° C., 5% CO2 before immunostaining for GPR17 marker expression.
Following 72 hours in culture, cells were fixed with 4% paraformaldehyde for 15 minutes and then washed three times in Dulbecco's phosphate buffered saline (DPBS). Prior to immunostaining, cells were treated with a blocking solution (10% normal goat serum containing 1% BSA and 0.1% Triton® X-100 in DPBS) for 15 minutes at room temperature. Primary antibody (anti-GPR17 at 1:2000; Origene TA811615) was applied to cells overnight at 4° C. in incubation solution containing 1% normal goat serum, 1% BSA, and 0.1% Triton X-100 in DPBS. […] The secondary antibody was applied in incubation solution for 2 hours at room temperature, protected from light.
The number of differentiated GPR17+ cells was normalized to the total nuclei count and percent differentiated GPR17+ cells were reported. Statistical analysis was done using one-way ANOVA with multiple comparisons and post-hoc Tukey test in GraphPad Prism (GraphPad Software).

PDGFRα, sequence (P16234 24-1089): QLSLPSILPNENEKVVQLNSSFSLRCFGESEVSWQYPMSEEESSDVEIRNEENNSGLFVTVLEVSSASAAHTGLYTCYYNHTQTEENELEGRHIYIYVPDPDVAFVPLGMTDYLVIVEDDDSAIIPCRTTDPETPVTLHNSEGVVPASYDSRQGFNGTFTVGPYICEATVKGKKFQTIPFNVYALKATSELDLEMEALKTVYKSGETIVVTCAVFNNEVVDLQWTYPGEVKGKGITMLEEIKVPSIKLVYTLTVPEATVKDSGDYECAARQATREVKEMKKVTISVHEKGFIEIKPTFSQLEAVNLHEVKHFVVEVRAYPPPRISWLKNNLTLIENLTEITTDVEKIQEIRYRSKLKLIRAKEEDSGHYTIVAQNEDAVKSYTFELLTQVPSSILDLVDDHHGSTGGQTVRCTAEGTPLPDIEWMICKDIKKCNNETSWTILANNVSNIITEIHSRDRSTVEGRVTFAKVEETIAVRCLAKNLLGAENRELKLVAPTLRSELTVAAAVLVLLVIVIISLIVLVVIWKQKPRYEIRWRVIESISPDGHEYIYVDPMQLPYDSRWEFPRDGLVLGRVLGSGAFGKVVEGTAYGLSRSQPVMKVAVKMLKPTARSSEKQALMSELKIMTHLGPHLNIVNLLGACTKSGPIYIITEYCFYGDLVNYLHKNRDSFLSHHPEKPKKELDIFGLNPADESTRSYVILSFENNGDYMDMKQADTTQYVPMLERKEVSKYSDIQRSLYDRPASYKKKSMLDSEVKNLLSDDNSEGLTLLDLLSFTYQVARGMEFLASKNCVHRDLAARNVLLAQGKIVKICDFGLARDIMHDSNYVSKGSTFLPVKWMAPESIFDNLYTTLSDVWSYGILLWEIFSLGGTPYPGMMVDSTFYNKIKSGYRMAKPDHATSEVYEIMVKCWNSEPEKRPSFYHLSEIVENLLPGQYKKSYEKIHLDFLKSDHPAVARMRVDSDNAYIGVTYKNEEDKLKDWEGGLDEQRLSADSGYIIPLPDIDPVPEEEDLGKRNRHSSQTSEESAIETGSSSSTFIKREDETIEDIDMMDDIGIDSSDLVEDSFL

Compound	IC50 (PDGFRα)	GPR17 Fold Induction (Over Vehicle; 3 μM) [1]
COCCn1cc(-c2ccn3c(N(C)CCN(C)C(=O)OC(C)(C)C)cnc3n2)cn1 [Compound 109, tert-butyl (2-((7-(1-(2-methoxyethyl)-1H-pyrazol-4-yl)imidazo[1,2-a]pyrimidin-3-yl)(methyl)amino)ethyl)(methyl)carbamate]	> 10 µM	1.38
Cn1cc(-c2ccn3c(N4CCC(C(=O)OC(C)(C)C)C4)cnc3n2)cn1 (stereo not shown) [Compound 110, tert-butyl 1-(7-(1-methyl-1H-pyrazol-4-yl)imidazo[1,2-a]pyrimidin-3-yl)pyrrolidine-3-carboxylate]	> 10 µM	0.85
Cc1cn(-c2ccn3c(N4CCCN(C(=O)OC(C)(C)C)CC4)cnc3n2)cn1 [Compound 111, tert-butyl 4-(7-(4-methyl-1H-imidazol-1-yl)imidazo[1,2-a]pyrimidin-3-yl)-1,4-diazepane-1-carboxylate]	> 10 µM	0.60
CN(CCN(C)c1cnc2nc(-c3cccnc3)ccn12)C(=O)OC(C)(C)C [Compound 112]	> 10 µM	0.91
Cn1cc(-c2cc3ncc(N4CCN(c5ncc(Cc6ccccc6)cn5)CC4)n3cn2)cn1 [Compound 113, 3-(4-(5-benzylpyrimidin-2-yl)piperazin-1-yl)-7-(1-methyl-1H-pyrazol-4-yl)imidazo[1,2-c]pyrimidine]	> 10 µM	0.57
Cn1cc(-c2cc3ncc(N4CCCN(c5ncc(Cc6ccccc6)cn5)CC4)n3cn2)cn1 [Compound 114, 3-(4-(5-benzylpyrimidin-2-yl)-1,4-diazepan-1-yl)-7-(1-methyl-1H-pyrazol-4-yl)imidazo[1,2-c]pyrimidine]	> 10 µM	0.33
C[C@@H](OC(=O)N1CCN(c2cnc3cc(-c4cnn(C)c4)ncn23)CC1)c1ccccc1 [Compound 115, (R)-1-phenylethyl 4-(7-(1-methyl-1H-pyrazol-4-yl)imidazo[1,2-c]pyrimidin-3-yl)piperazine-1-carboxylate]	> 10 µM	2.46
C[C@@H](OC(=O)N1CCN(c2cnc3nc(-c4cnn(C)c4)ccn23)CC1)c1ccccc1 [Compound 116, (R)-1-phenylethyl 4-(7-(1-methyl-1H-pyrazol-4-yl)imidazo[1,2-a]pyrimidin-3-yl)piperazine-1-carboxylate]	6.52 µM	4.31
C[C@@H](OC(=O)N1CCCN(c2cnc3nc(-c4cnn(C)c4)ccn23)CC1)c1ccccc1 [Compound 117, (R)-1-phenylethyl 4-(7-(1-methyl-1H-pyrazol-4-yl)imidazo[1,2-a]pyrimidin-3-yl)-1,4-diazepane-1-carboxylate]	> 10 µM	1.39
Cn1cc(-c2cc3ncc(N4CCN(C(=O)NCc5ccc(C(F)(F)F)cc5)CC4)n3cn2)cn1 [Compound 118, 4-(7-(1-methyl-1H-pyrazol-4-yl)imidazo[1,2-c]pyrimidin-3-yl)-N-(4-(trifluoromethyl)benzyl)piperazine-1-carboxamide]	> 10 µM	0.93
Cn1cc(-c2ccn3c(N4CCN(C(=O)NCc5ccc(C(F)(F)F)cc5)CC4)cnc3n2)cn1 [Compound 119, 4-(7-(1-methyl-1H-pyrazol-4-yl)imidazo[1,2-a]pyrimidin-3-yl)-N-(4-(trifluoromethyl)benzyl)piperazine-1-carboxamide]	1.71 µM	8.04
Cn1cc(-c2ccn3c(N4CCCN(C(=O)NCc5ccc(C(F)(F)F)cc5)CC4)cnc3n2)cn1 [Compound 120, 4-(7-(1-methyl-1H-pyrazol-4-yl)imidazo[1,2-a]pyrimidin-3-yl)-N-(4-(trifluoromethyl)benzyl)-1,4-diazepane-1-carboxamide]	> 10 µM	0.87
Cn1cc(-c2ccn3c(N4CCN(c5ncc(Cc6ccccc6)cn5)CC4)cnc3n2)cn1 [Compound 121, 3-(4-(5-benzylpyrimidin-2-yl)piperazin-1-yl)-7-(1-methyl-1H-pyrazol-4-yl)imidazo[1,2-a]pyrimidine]	0.818 µM	4.71
Cn1cc(-c2ccn3c(N4CCCN(c5ncc(Cc6ccccc6)cn5)CC4)cnc3n2)cn1 [Compound 122, 3-(4-(5-benzylpyrimidin-2-yl)-1,4-diazepan-1-yl)-7-(1-methyl-1H-pyrazol-4-yl)imidazo[1,2-a]pyrimidine]	> 10 µM	3.19
Cn1cc(-c2ccc3c(NCCNc4ncc(Cc5ccccc5)cn4)cnn3c2)cn1 [Compound 123, N^1-(5-benzylpyrimidin-2-yl)-N^2-(6-(1-methyl-1H-pyrazol-4-yl)pyrazolo[1,5-a]pyridin-3-yl)ethane-1,2-diamine]	> 10 µM	1.34
Cn1cc(-c2ccc3c(NCCCNc4ncc(Cc5ccccc5)cn4)cnn3c2)cn1 [Compound 124, N^1-(5-benzylpyrimidin-2-yl)-N^3-(6-(1-methyl-1H-pyrazol-4-yl)pyrazolo[1,5-a]pyridin-3-yl)propane-1,3-diamine]	> 10 µM	1.47
CN(CCNc1ncc(Cc2ccccc2)cn1)c1cnn2cc(-c3cnn(C)c3)ccc12 [Compound 125, N^1-(5-benzylpyrimidin-2-yl)-N^2-methyl-N^2-(6-(1-methyl-1H-pyrazol-4-yl)pyrazolo[1,5-a]pyridin-3-yl)ethane-1,2-diamine]	> 10 µM	1.09
CN(CCNc1cnn2cc(-c3cnn(C)c3)ccc12)c1ncc(Cc2ccccc2)cn1 [Compound 126, N^1-(5-benzylpyrimidin-2-yl)-N^1-methyl-N^2-(6-(1-methyl-1H-pyrazol-4-yl)pyrazolo[1,5-a]pyridin-3-yl)ethane-1,2-diamine]	7.12 µM	5.91
CN(CCN(C)c1cnn2cc(-c3cnn(C)c3)ccc12)c1ncc(Cc2ccccc2)cn1 [Compound 127, N^1-(5-benzylpyrimidin-2-yl)-N^1,N^2-dimethyl-N^2-(6-(1-methyl-1H-pyrazol-4-yl)pyrazolo[1,5-a]pyridin-3-yl)ethane-1,2-diamine]	> 10 µM	1.36
CN(CCCNc1ncc(Cc2ccccc2)cn1)c1cnn2cc(-c3cnn(C)c3)ccc12 [Compound 128, N^1-(5-benzylpyrimidin-2-yl)-N^3-methyl-N^3-(6-(1-methyl-1H-pyrazol-4-yl)pyrazolo[1,5-a]pyridin-3-yl)propane-1,3-diamine]	> 10 µM	1.45
CN(CCCNc1cnn2cc(-c3cnn(C)c3)ccc12)c1ncc(Cc2ccccc2)cn1 [Compound 129, N^1-(5-benzylpyrimidin-2-yl)-N^1-methyl-N^3-(6-(1-methyl-1H-pyrazol-4-yl)pyrazolo[1,5-a]pyridin-3-yl)propane-1,3-diamine]	> 10 µM	2.27
Cn1cc(-c2ccc3c(C4=CCC(C(=O)OCc5ccccc5)CC4)cnn3c2)cn1 (stereo not shown) [Compound 132, benzyl 4-(6-(1-methyl-1H-pyrazol-4-yl)pyrazolo[1,5-a]pyridin-3-yl)cyclohex-3-ene-1-carboxylate]	0.744 µM	5.85
Cn1cc(-c2ccc3c(C4=CCC(C(=O)OCc5ccccc5)C4)cnn3c2)cn1 (stereo not shown) [Compound 133, benzyl 3-[6-(1-methylpyrazol-4-yl)pyrazolo[1,5-a]pyridin-3-yl]cyclopent-3-ene-1-carboxylate]	1.44 µM	3.02
CN(Cc1ccccc1)C(=O)C1CC=C(c2cnn3cc(-c4cnn(C)c4)ccc23)C1 (stereo not shown) [Compound 135, N-benzyl-N-methyl-3-(6-(1-methyl-1H-pyrazol-4-yl)pyrazolo[1,5-a]pyridin-3-yl)cyclopent-3-ene-1-carboxamide]	3.63 µM	7.38
Cn1cc(-c2ccc3c(C4CCC(C(=O)OCc5ccccc5)CC4)cnn3c2)cn1 (stereo not shown) [Compound 136, benzyl 4-(6-(1-methyl-1H-pyrazol-4-yl)pyrazolo[1,5-a]pyridin-3-yl)cyclohexane-1-carboxylate]	> 10 µM	3.64
Cn1cc(-c2ccc3c(C4CCC(C(=O)OCc5ccccc5)C4)cnn3c2)cn1 (stereo not shown) [Compound 137]	5.05 µM	0.99
Cn1cc(-c2ccc3c(C4CCC(COc5ccccc5)CC4)cnn3c2)cn1 (stereo not shown) [Compound 138, 6-(1-methyl-1H-pyrazol-4-yl)-3-(4-(phenoxymethyl)cyclohexyl)pyrazolo[1,5-a]pyridine]	9.01 µM	0.98
CN(Cc1ccccc1)C(=O)C1CCC(c2cnn3cc(-c4cnn(C)c4)ccc23)CC1 (stereo not shown) [Compound 139, N-benzyl-N-methyl-4-(6-(1-methyl-1H-pyrazol-4-yl)pyrazolo[1,5-a]pyridin-3-yl)cyclohexane-1-carboxamide]	8.81 µM	3.87
CN(Cc1ccccc1)C(=O)C1CCC(c2cnn3cc(-c4cnn(C)c4)ccc23)C1 (stereo not shown) [Compound 140, N-benzyl-N-methyl-3-(6-(1-methyl-1H-pyrazol-4-yl)pyrazolo[1,5-a]pyridin-3-yl)cyclopentane-1-carboxamide]	> 10 µM	3.54
